Results from US20220105150A1, “AMPHIPATHIC ALPHA-HELICAL ANTIMICROBIAL PEPTIDES TREAT INFECTIONS BY GRAM-NEGATIVE PATHOGENS” (priority 2019, published 2022).
Converted amounts (≈) assume the structure as drawn.

How the values were obtained:
[1] = test system: Acinetobacter baumannii isolates resistant to classical antibiotics; format: cell-based; conditions: for MICGM: geometric mean over 20 strains; for MIC 101887: strain 101887 (lower line); for MIC 961997: strain 961997 (lower line); for MIC 963618: strain 963618 (lower line); for MIC 964304: strain 964304 (lower line); for MIC 977751: strain 977751 (lower line); for MIC 981653: strain 981653 (lower line); for MIC 1002956: strain 1002956 (lower line); for MIC 1007660: strain 1007660 (lower line); for MIC 1010282: strain 1010282 (lower line); for MIC 1035166: strain 1035166 (lower line)
[2] = Peptide self-association by temperature profiling in RP-HPLC; format: physicochemical; conditions: for PA: self-association parameter relative to random coil control peptide RC; for Tp: temperature at which maximum retention time is observed, 5-77° C.
Procedure: Retention behavior from eight AMPs after normalization to their retention times at 5° C. over the temperature range 5° C. to 41° C. in 2° C. increments or 5° C. to 75° C. in 10° C. increments (methodology details provided in Examples). […] Peptide denotions in FIG. 5 have been abbreviated from those shown in Table 1G; for example, D87(Lys1-6 Arg-1) has been shortened to D87(6 Arg-1). RC is a random coil control peptide used for RP-HPLC temperature profiling. The peptide self-association parameter, PA, represents the maximum change in peptide retention time relative to the random coil peptide, RC (PA values shown in Table 6). […] T., et al. J. Med. Chem. 2019, 62:3354-66.
(§1) Hemoglobin release was determined spectrophotometrically at 570 nm.
Peptide self-association, the ability to dimerize/oligomerize in aqueous solution, is a very important parameter to optimize antimicrobial activity and toxicity as measured by hemolytic activity. We have proposed that the monomeric random-coil antimicrobial peptides in aqueous solution are best suited to pass through a polysaccharide capsule, the outer membrane lipopolysaccharide and the cell wall peptidoglycan layer of Gram-negative bacteria prior to penetration into the cytoplasmic membrane, where there is induction of α-helical structure and disruption of membrane structure, cell leakage and death of bacterial cells. In contrast, if the self-association ability of an AMP in aqueous medium is too strong, stable folded dimers/oligomers are formed through interaction of their non-polar faces which decreases the ability of the AMP to dissociate to monomer and the dimer/oligomer to effectively pass through the capsule and cell wall to reach the cytoplasmic membrane. The ability of an AMP to self-associate was determined by a RP-HPLC technique developed in our laboratory, referred to as temperature profiling over the temperature range 5° C. to 80° C. […] These eight AMPs are compared to a random-coil control peptide denoted RC. […] This linear decrease in retention behavior with increasing temperature represents the general effects of temperature due to greater solute diffusivity and enhanced mass transfer between the mobile and stationary phases. The difference in retention time between an amphipathic α-helical antimicrobial peptide and the RC control peptide is a measure of the ability of a peptide to associate. The association parameter, PA is large for AMPs without specificity determinants (Ala 13 and Ala 16) ranging from 12.5 to 28.0 min (Table 6) and is shown by a black arrow in FIG. 5. The association parameter, PA, is dramatically smaller for AMPs with specificity determinants (Lys 13 and Lys 16 in the center of the non-polar face) and range from 0 to 6 min (Table 6). […]

[3] = test system: A. baumannii strain 649; format: cell-based, Acinetobacter baumannii; conditions: for fold loss of antimicrobial activity in 25% human sera: 25% human sera versus no serum; for MIC 25% human serum: MH medium supplemented with 25% (v/v) human sera; for MIC No serum: MH medium
Procedure: as §1
Because only unbound AMP is available to interact with the therapeutic target, the extent of binding between AMPs and serum proteins can have significant effects on efficacy of these drugs. […] This assay estimates the in vivo bioavailability of our AMPs. […] An increase in MIC in the presence of serum is attributed to inhibition of antimicrobial activity due to binding to serum proteins.

Row | SMILES | MICGM [1] [µM] | MIC 101887 [1] [µM] | MIC 961997 [1] [µM] | MIC 963618 [1] [µM] | MIC 964304 [1] [µM] | MIC 977751 [1] [µM] | MIC 981653 [1] [µM] | MIC 1002956 [1] [µM] | MIC 1007660 [1] [µM] | MIC 1010282 [1] [µM] | MIC 1035166 [1] [µM] | PA [2] [min] | Tp [2] [°C] | fold loss of antimicrobial activity in 25% human sera [3] [fold] | MIC 25% human serum [3] [µM] | MIC No serum [3] [µM]
1 | CC(=O)N[C@H](CCCCN)C(=O)N[C@H](CC(C)C)C(=O)N[C@H](CCN)C(=O)N[C@H](CO)C(=O)N[C@H](CC(C)C)C(=O)N[C@H](CC(C)C)C(=O)N[C@H](CCN)C(=O)N[C@@H](C(=O)N[C@H](CC(C)C)C(=O)N[C@H](CO)C(=O)N[C@H](CCN)C(=O)N[C@H](C)C(=O)N[C@H](C)C(=O)N[C@H](C)C(=O)N[C@H](C)C(=O)N[C@H](C)C(=O)N[C@H](CC(C)C)C(=O)N[C@H](CCN)C(=O)N[C@@H](C(=O)N[C@H](CC(C)C)C(=O)N[C@H](CC(C)C)C(=O)N[C@H](CCN)C(=O)N[C@H](C)C(=O)N[C@H](CC(C)C)C(=O)N[C@H](CO)C(=O)N[C@H](CCN)C(N)=O)[C@H](C)O)[C@H](C)O [D86(K13A/K16A)-(Lys^1-6Dab-1), Ac-KL(Dab)SLL(Dab)TLS(Dab)AAAAAL(Dab)TLL(Dab)ALS(Dab)-amide] | 0.9 | 0.5 (≈ 1.29 µg/mL) | 0.8 (≈ 2.07 µg/mL) | 0.8 (≈ 2.07 µg/mL) | 1.5 (≈ 3.87 µg/mL) | 3.1 (≈ 8.01 µg/mL) | 0.4 (≈ 1.03 µg/mL) | 0.8 (≈ 2.07 µg/mL) | 0.8 (≈ 2.07 µg/mL) | 0.8 (≈ 2.07 µg/mL) | 0.8 (≈ 2.07 µg/mL) | 12.5 | 31.0 | 4 | 3.0 (≈ 7.75 µg/mL) | 0.8 (≈ 2.07 µg/mL)
2 | CC(=O)N[C@H](CCCCN)C(=O)N[C@H](CC(C)C)C(=O)N[C@H](CN)C(=O)N[C@H](CO)C(=O)N[C@H](CC(C)C)C(=O)N[C@H](CC(C)C)C(=O)N[C@H](CN)C(=O)N[C@@H](C(=O)N[C@H](CC(C)C)C(=O)N[C@H](CO)C(=O)N[C@H](CN)C(=O)N[C@H](C)C(=O)N[C@H](C)C(=O)N[C@H](C)C(=O)N[C@H](C)C(=O)N[C@H](C)C(=O)N[C@H](CC(C)C)C(=O)N[C@H](CN)C(=O)N[C@@H](C(=O)N[C@H](CC(C)C)C(=O)N[C@H](CC(C)C)C(=O)N[C@H](CN)C(=O)N[C@H](C)C(=O)N[C@H](CC(C)C)C(=O)N[C@H](CO)C(=O)N[C@H](CN)C(N)=O)[C@H](C)O)[C@H](C)O [D105(K13A/K16A)-(Lys^1-6Dap-1), Ac-KL(Dap)SLL(Dap)TLS(Dap)AAAAAL(Dap)TLL(Dap)ALS(Dap)-amide] | 2.0 | 3.2 (≈ 8 µg/mL) | 3.2 (≈ 8 µg/mL) | 1.6 (≈ 4 µg/mL) | 3.2 (≈ 8 µg/mL) | 0.8 (≈ 2 µg/mL) | 1.6 (≈ 4 µg/mL) | 1.6 (≈ 4 µg/mL) | 3.2 (≈ 8 µg/mL) | 1.6 (≈ 4 µg/mL) | 3.2 (≈ 8 µg/mL) | 18.0 | 39.0 | 15 | 12.5 (≈ 31.2 µg/mL) | 0.8 (≈ 2 µg/mL)
